Data on seven molecules can be found in paper PMC5614581, “Investigating cyclic nucleotide and cyclic dinucleotide binding to HCN channels by surface plasmon resonance” (PLoS ONE, 2017).

Test [1] has as its target T1, mHCN2-L586W C-linker/CNBD (Mus musculus, UniProt O88703, L586W).
T1 construct: mouse HCN2 (mHCN2, residues 443–645); made in house; host or cells: E. coli BL21 (DE3)
T1 sequence (O88703 443-645 L586W): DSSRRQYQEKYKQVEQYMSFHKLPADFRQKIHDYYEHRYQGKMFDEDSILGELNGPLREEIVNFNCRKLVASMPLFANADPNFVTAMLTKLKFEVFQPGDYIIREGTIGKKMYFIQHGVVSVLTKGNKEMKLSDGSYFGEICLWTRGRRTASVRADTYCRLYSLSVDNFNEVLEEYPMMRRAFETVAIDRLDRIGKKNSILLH
The test can be described thus: SPR, immobilized mHCN2-L586W C-linker/CNBD on NTA chip. The test is classed as binding. How it is done:
Error bars indicate the SEM. […] Statistical analysis was performed by using one-way ANOVA. P < 0.05 was considered statistically significant.

The test system of test [2] is full-length HCN2 channels. To be noted: read-out: affinity for full-length HCN2 channels, electrophysiology; cited from earlier work.
For test [3], the target named is isolated C-linker/CNBDs of HCN2 channels. The note with it: cGMP; read-out: binding affinity (ITC); cited from earlier work.
In test [4] the target is mHCN2-L586W C-linker/CNBDs. To be noted: read-out: binding affinity (tryptophan fluorescence); cited from earlier work.
For test [5], the system named is full-length hHCN4 channels. To be noted: cited from earlier work; for effect on cyclic nucleotide modulation of the channel: in the presence of cyclic nucleotides.
The target in test [6] is T2, C-linker/CNBD of mouse HCN2 (mHCN2, residues 443–645) (Mus musculus, UniProt O88703).
T2 sequence (O88703 443-645): T1 sequence (O88703 443-645 L586W) with W144L
Nature of the test: SPR, immobilized mHCN2 C-linker/CNBD on NTA chip. The note with it: for Kd: SPR. Background: SPR reads the build-up and loss of mass on a sensor chip optically.
Method: (§1) SPR experiments were performed at 25 °C on a Biacore 4000 Instrument (GE Healthcare). C-linker/CNBDs of wild-type and L586W mutant mHCN2, and hHCN4 channels were immobilized on a NTA chip (GE Healthcare), as previously described [31, 32]. Immobilizations of the proteins were performed in HBS-P buffer (150 mM NaCl, 10 mM HEPES, 0.05% (v/v) surfactant P20, pH 7.4). First the NTA sensor surface was activated with a 1 min injection of 0.5 M NiCl2. The coupling of the Ni^2+-NTA chip surface groups with the 6-His-tagged proteins was then achieved by 2.5 min injections of the proteins at 200 nM concentrations to the chip surface. After the initial capturing, the proteins were covalently cross-linked via 20 s injections of NHS-EDC carboxyl-reactive cross-linkers to prevent protein loss from the chip surface with successive analyte and buffer injections. This was followed by 20 s injection of 1 M ethanolamine to block the remaining reactive sites. The proteins were captured at ~1000–3000 resonance units (RU; 1 RU = 1 pg of protein per mm^2). […] This spot was used as a reference surface to account for a non-specific binding to the chip surface. The binding to the reference surface was subtracted from the binding to the surfaces with immobilized proteins. In addition, the binding corresponding to blank injections (buffer only) was subtracted from the reference subtracted SPR data.
(§2) The binding experiments were performed in the running buffer (150 mM KCl, 10% Glycerol, 1 mM TCEP, 30 mM HEPES, pH 7.5). Analytes over the range of concentrations were injected in triplicates over the chip surface for 60 s at a flow rate of 30 μl /min, followed by buffer only injections. The regeneration of the surface between the analyte injections was not necessary, as the baseline returned to the pre-injection levels. In some experiments we observed a drift in the baseline. […] However, there was minimal residual binding between analyte injections, as indicated by essentially the same binding response for triplicate repeats of analyte injections at the same concentrations.
(§3) Each experiment was repeated on at least three different NTA chips.
(§4) Therefore, concentrations higher than 300 μM were excluded from the analysis. The data analysis and fitting of the plots was performed in Origin (Microcal Software, Inc). Error bars indicate the SEM. […] For each NTA chip an analyte was injected three times. Therefore, each experiment was repeated at least 3xn times. Statistical analysis was performed by using one-way ANOVA. P < 0.05 was considered statistically significant.

For test [7], the target named is T3, C-linker/CNBD of human HCN4 (hHCN4, residues 521–723) (Homo sapiens, UniProt Q9Y3Q4).
T3 sequence (Q9Y3Q4 521-723): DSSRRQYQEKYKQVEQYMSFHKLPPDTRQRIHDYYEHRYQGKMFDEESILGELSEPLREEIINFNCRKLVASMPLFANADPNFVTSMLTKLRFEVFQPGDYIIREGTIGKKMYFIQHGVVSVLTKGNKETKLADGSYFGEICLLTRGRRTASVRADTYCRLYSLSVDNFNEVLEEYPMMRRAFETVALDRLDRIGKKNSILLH
Nature of the test: SPR, immobilized hHCN4 C-linker/CNBD on NTA chip. The note with it: for SPR binding response: analyte alone (no added cAMP), 300 μM or range up to 300 μM; for SPR binding response in the presence of cAMP: in the presence of 100 μM cAMP, analyte 300 μM or range up to 300 μM.
Method: as §1, §2, §3, §4

The target of test [8] is isolated C-linker/CNBDs of HCN2 channels. The note with it: read-out: binding affinity (SPR, ligand coupled to CM5 chip); cited from earlier work.
The target of test [9] is isolated C-linker/CNBDs of HCN4 channels. The note with it: read-out: binding affinity (SPR, ligand coupled to CM5 sensor); cited from earlier work.
The target of test [10] is C-linker/CNBDs of HCN4 channels. The note with it: read-out: binding affinity (FA), cited from earlier work.
The target in test [11] is T4, hHCN4 C-linker/CNBD (monomeric) (Homo sapiens, UniProt Q9Y3Q4).
T4 construct: human HCN4 (hHCN4, residues 521–723); made in house; host or cells: E. coli BL21 (DE3)
T4 sequence (Q9Y3Q4 521-723): T3 sequence (Q9Y3Q4 521-723)
The test can be described thus: ITC, 6 μM (monomeric) 6-His tagged hHCN4 C-linker/CNBD. The format is binding. The note with it: 6 μM C-linker/CNBD.
Method: (§5) For ITC experiments at low concentrations of the hHCN4 C-linker/CNBD the protein was concentrated to 6 μM and dialyzed in 150 mM KCl, 1 mM TCEP, 30 mM HEPES, pH 7.5 overnight at 4°C using a Slide-A-Lyzer dialysis cassette (ThermoFisher Scientific). For ITC experiments at high concentrations of the hHCN4 C-linker/CNBD the protein was concentrated to 80 μM and dialyzed in 100 mM KCl, 1 mM TCEP, 20 mM HEPES, pH 7.0 overnight at 4°C using a Slide-A-Lyzer cassette. The protein solutions were degassed prior to each experiment. ITC titrations were performed at 25°C using the ITC200 calorimeter (Malvern Instruments Inc. Westborough, MA). […] Data analysis was performed with NITPIC and SEDFAT [34, 35] using a single-site binding model for 6 μM C-linker/CNBDs and a two independent binding site model for 80 μM C-linker/CNBDs, as used by Chow et al. [36].

Test [12] concerns the target T5, hHCN4 C-linker/CNBD (tetrameric) (Homo sapiens, UniProt Q9Y3Q4).
T5 construct: C-linker/CNBD of hHCN4 (residues 521–723); made in house; host or cells: E. coli BL21 (DE3)
T5 sequence (Q9Y3Q4 521-723): T3 sequence (Q9Y3Q4 521-723)
The test can be described thus: ITC, 80 μM (tetrameric) hHCN4 C-linker/CNBD after MBP tag cleavage. The format is binding. To be noted: 80 μM C-linker/CNBD. A general note: ITC needs no label: the signal is the heat of the interaction.
Method: as §5

Test [13] has as its target isolated C-linker/CNBDs of HCN2 channels. To be noted: read-out: binding affinity (FA); cited from earlier work.
[14] abbreviates: analyte alone (no added cAMP), 300 μM.
Setting [15] is: in the presence of 100 μM cAMP, analyte 300 μM.

Substitutions are numbered along the chain they refer to. Entries after “also recorded” stand apart in the source; their conditions may differ. Where two headings read alike, the source gives them in different places. Bounds are passed on as bounds.

Regarding `Nc1nc2c(ncn2[C@@H]2O[C@@H]3COP(=O)(O)O[C@H]3[C@H]2O)c(=O)[nH]1` [cGMP], the Kd is more than 73.9 µM in [1] (averaged over different NTA chips, for cGMP only a limit could be estimated, read-out: Kd (averaged binding affinity)); not below 70.1 µM in [1] (single surface, Fig 2D, read-out: binding affinity (fit of representative dose response plot)); 8.5 µM in [3]; 62 ± 23 µM in test [4]; 13.4 ± 2 µM in [6] (read-out: Kd (averaged binding affinity), averaged over different NTA chips, 25 °C, Hill fit); 12.3 ± 1.1 µM in test [6] (read-out: binding affinity (fit of representative dose response plot), single surface, Fig 1E). Besides, the Kd was 5.5 ± 0.9 µM in test [7] (read-out: Kd (averaged binding affinity), SPR, averaged over different NTA chips) and 5.6 ± 0.2 µM in test [7] (read-out: binding affinity (fit of representative dose response plot), SPR, single surface, Fig 3C). In addition, the EC50 in [2] is approximately 6 µM; in test [5] (cGMP, read-out: affinity for full-length hHCN4 channels, electrophysiology), 13.2 µM. The “affinity for hHCN4 relative to mHCN2 domains” value in test [7] (SPR, P < 0.05 by ANOVA) is listed as “about two-fold higher”. The SPR binding response result in test [7] is listed as “robust response”.

Regarding `NCCCCCCNc1nc2c(N)ncnc2n1[C@@H]1O[C@@H]2COP(=O)(O)O[C@H]2[C@H]1O` [8-AHA-cAMP], the figures for the Kd in test [8] and in test [9] were 10 µM and 11 µM, respectively.

`Nc1nc2c(ncn2[C@@H]2O[C@@H]3COP(=O)(O)O[C@H]4[C@@H](O)[C@H](n5cnc6c(N)ncnc65)O[C@@H]4COP(=O)(O)O[C@@H]2[C@@H]3O)c(=O)[nH]1` [cGAMP]: in test [5], the “effect on cyclic nucleotide modulation of the channel” value (“effect … of the channel” below) is recorded as “antagonized the effect of cyclic nucleotides”. Besides, in test [6], the SPR binding response result is “did not detect any binding” and the “SPR binding response in the presence of cAMP” value (shortened to “SPR binding response … of cAMP”) is listed as “did not detect any binding”.

Take `Nc1nc2c(nc(SCCNC(=S)Nc3ccc4c(c3)C(=O)OC43c4ccc(O)cc4Oc4cc(O)ccc43)n2[C@@H]2O[C@@H]3COP(=O)(O)O[C@H]3[C@H]2O)c(=O)[nH]1` [8-Fluo-cGMP]: in test [10] (8-Fluo-cGMP), the Kd is 0.7 µM.

With `Nc1nc2c(ncn2[C@@H]2O[C@@H]3COP(=O)(O)O[C@H]4[C@@H](O)[C@H](n5cnc6c(=O)[nH]c(N)nc65)O[C@@H]4COP(=O)(O)O[C@H]3[C@H]2O)c(=O)[nH]1` [c-di-GMP], the “binding (ITC)” value in test [11] (absence of cAMP, titrated with 300 μM ligand) is recorded as “no binding”; in test [12] (absence of cAMP), “no binding”. Further, the “binding (ITC) in the presence of cAMP” value in [11] (presence of 100 μM cAMP in ligand and protein solutions) is on record as “no binding”; in test [12] (presence of 1 mM cAMP), “no binding”. Besides, the “effect on the cAMP-induced V1/2 shift” value in test [5] (100 μM c-di-GMP, 15 μM cAMP) is “completely abolishing the effect of 15 μM cAMP”. In addition, the IC50 in test [5] (in the presence of 15 μM cAMP, read-out: apparent affinity for decreasing the cAMP-induced positive shift in V1/2) was 1.8 µM. Moreover, the “effect … of the channel” value in test [5] was “antagonized the effect of cyclic nucleotides”. Besides, the SPR binding response entry was “did not detect any binding” in [6] (setting [14]), “No increase in the binding response; also recorded: did not show any cyclic dinucleotide binding” in [7] and “did not detect any binding” in test [7] (listed as c-diGMP). The “SPR binding response … of cAMP” value is “did not detect any binding” in test [6] (setting [15]), “No increase in the binding response; also recorded: did not show any cyclic dinucleotide binding” in test [7] and “did not detect any binding” in [7] (listed as c-diGMP).

For the molecule `Nc1ncnc2c1nc(SCCNC(=S)Nc1ccc(-c3c4ccc(=O)cc-4oc4cc(O)ccc34)c(C(=O)O)c1)n2C1OC2COP(=O)(O)OC2C1O` (stereo not drawn) [8-Fluo-cAMP], the figures for the Kd in [13] and in test [10] (8-Fluo-cAMP) were 0.3 to 0.7 µM and 0.18 to 0.28 µM, respectively.

Turning to `Nc1ncnc2c1ncn2[C@@H]1O[C@@H]2COP(=O)(O)O[C@H]3[C@@H](O)[C@H](n4cnc5c(N)ncnc54)O[C@@H]3COP(=O)(O)O[C@H]2[C@H]1O` [c-di-AMP], the “effect … of the channel” value in test [5] was “antagonized the effect of cyclic nucleotides”. Moreover, the SPR binding response entry was “No increase in the binding response” in test [6] (setting [14]); “did not detect any binding” in test [6] (analyte alone (no added cAMP), 300 μM, listed as c-diAMP); “No increase in the binding response; also recorded: did not show any cyclic dinucleotide binding” in test [7]; “did not detect any binding” in test [7] (listed as c-diAMP). Also, the “SPR binding response … of cAMP” value is “No increase in the binding response” in test [6] (setting [15]); “did not detect any binding” in test [6] (in the presence of 100 μM cAMP, analyte 300 μM, listed as c-diAMP); “No increase in the binding response; also recorded: did not show any cyclic dinucleotide binding” in test [7]; “did not detect any binding” in test [7] (listed as c-diAMP).
